In PMC5989765, “The safety, tolerability, and pharmacokinetic profile of GSK2838232, a novel 2nd generation HIV maturation inhibitor, as assessed in healthy subjects” (Pharmacology Research & Perspectives, 2018):
Where two headings read alike, the source gives them in different places.

Tests used:
[1] = Study 200207: repeat dose 20-50 mg QD for 8 days, SDD, healthy subjects; type: in vivo, human
Protocol: This study was conducted in parallel with Study 200912 and was planned as a two‐part, double‐blind, placebo‐controlled, repeat dose escalation study of GSK2838232 with and without RTV for 8‐11 days. Subjects were randomized 3:1 to receive GSK2838232 or placebo. Part A was designed to evaluate GSK2838232 given alone for 8 days (20 mg and 50 mg GSK2838232 once‐daily (QD) for 8 days, respectively) and Part B was designed to evaluate GSK2838232 when co‐administered with 100 mg RTV QD for 11 days. Because of the occurrence of an SAE that was eventually determined to be unlikely to be related to GSK2838232 (see Safety discussion), the study was terminated early after one cohort in Part B (10 mg GSK2838232 + 100 mg RTV QD) had completed only 5 days of the planned 11‐day regimen.
(§1) Blood samples were taken via an indwelling cannula or by direct venipuncture, collected into a di‐potassium ethylenediaminetetraacetic acid (K2 EDTA) tube, and placed on wet ice. Samples were centrifuged at approximately 1500g for 10 minutes at approximately 4°C. Exactly 500 μL of the resulting plasma was transferred into labeled 1.4 mL Matrix TrakMate Tubes containing exactly 500 μL of 50 mmol/L citrate buffer, pH 4.0, and mixed well. When 500 μL of plasma was not able to be transferred, the ratio of plasma to citrate buffer was kept at 1:1. Buffered plasma samples were kept on ice and frozen at −70°C within 1 hour of collection. Plasma samples were analyzed for GSK2838232 using a validated analytical method based on protein precipitation, followed by high performance liquid chromatography with tandem mass spectrometry (HPLC/MS/MS) analysis.
(§2) Extracts were analyzed using HPLC (Shimadzu, Nexera, 30 series) and tandem mass spectrometry detection (HPLC‐MS/MS). The mass spectrometer used was an API‐5500 using IonSpray interface (500 V) in positive mode monitoring. The mass transitions were 809.5 to 255.1 and 816.5 to 262.1 for GSK2838232 and [2H7] GSK2838232 (the isotopically labeled internal standard), respectively. The chromatographic conditions utilized a Waters Acquity UPLC BEH C18 column (50 × 2.1 mm, 1.7 μm) with mobile phases consisting of 1 mmol/L ammonium formate:formic acid (100:0.005) (mobile phase A) and acetonitrile:formic acid (100:0.1) (mobile phase B) at a flow rate of 0.6 mL/min, with pump B at 63% held for 2 minutes. The assay was validated to have precision (%RSD) of 0.7%‐6.5% (within‐run) and 1.0%‐5.9% RSD (between‐run) and with accuracy (%bias) of 0.0%‐1.6%. […] The lower limit of quantification (LLQ) was 0.5 ng/mL, using a 50 μL aliquot of K2EDTA acidified plasma. The higher limit of quantification (HLQ) was 500 ng/mL.
(§3) The PK parameters were calculated by standard noncompartmental analysis based on actual sampling times using WinNonlin Version 6.3 or higher. Estimation of AUC used the linear up/log down trapezoidal rule.

[2] = Study HMI116787: single ascending dose, food effect and RTV boosting, SDD PiB, healthy subjects; type: in vivo, human; conditions: for Cmax / Tmax / concentration at 24 h / AUC / half-life: human, plasma, oral; for Cmax / Tmax / concentration at 24 h / AUC / half-life / CL/F: fasted; for Cmax / AUC / half-life / CL/F: geometric mean (95% CI); for Tmax / concentration at 24 h: median (range); for concentration at 24 h: read-out: C24; for AUC: read-out: AUC(0‐∞); for half-life: read-out: t½ (converted)
Protocol: This study was a first‐in‐human, double‐blind, randomized, placebo‐controlled, single dose escalation study of GSK2838232 in healthy subjects conducted in two sequential cohorts with four dosing visits in each cohort. At each visit in each cohort, 6 out of the 8 subjects were randomized to receive the active dose, and 2 out of the 8 subjects were randomized to placebo. Cohort 1 tested escalating doses of 5, 10, and 20 mg GSK2838232 as a Spray Dried Dispersion (SDD) delivered as a powder‐in‐bottle (PiB) suspension; Cohort 2 tested the same formulation at doses of 50 and 100 mg, the effect of a high‐fat breakfast on a 50 mg dose, and the impact of steady‐state dosing of 100 mg once‐daily (QD) RTV on the PK of a single 10 mg dose of GSK2838232 (administered on Day 10 of the 12 days of RTV dosing). All doses were administered in a fasted state, except in the food effect portion of the study.
as §1, §2, §3

[3] = repeated daily dosing with 50 mg, unboosted
[4] = 50 mg Fed (high, 60% fat meal) versus 50 mg fasted, SDD PiB formulation, Study HMI116787
[5] = RTV for 10 days prior to 10 mg SDD, Study 116787
[6] = single 5 mg SDD PiB, without ritonavir, Study HMI116787
[7] = single 10 mg SDD PiB, with ritonavir 100 mg QD (Day 10 of 12), Study HMI116787
[8] = single 10 mg SDD PiB, without ritonavir, Study HMI116787
[9] = single 20 mg SDD PiB, without ritonavir, Study HMI116787
[10] = single 50 mg SDD PiB, without ritonavir, Study HMI116787
[11] = single 100 mg SDD PiB, without ritonavir, Study HMI116787

SMILES: CC(C)C1=C2[C@H]3CC[C@@H]4[C@@]5(C)CC[C@H](OC(=O)CC(C)(C)C(=O)O)C(C)(C)[C@@H]5CC[C@@]4(C)[C@]3(C)CC[C@@]2([C@@H](O)CN(CCN(C)C)Cc2ccc(Cl)cc2)CC1=O [GSK2838232]
- relatedness of the two cardiovascular events ([1]; Study 200207, after expert evaluation): the likelihood of a relationship was very low
- cardiovascular finding: arrhythmia ([1]; Study 200207, one subject, 39 hours after last of eight daily 50 mg doses): a nonsustained ventricular tachycardia (NSVT) that was associated with dyspnea in another
- cardiovascular finding: troponin ([1]; Study 200207, one subject, second day of dosing with 20 mg): a mild troponin elevation in one subject
- concentration at 39 hours ([1]; human, plasma, oral, one subject, 39 hours after the last of eight daily 50 mg doses, read-out: plasma concentration at the time of the NSVT event): < 1 ng/mL
- half-life ([1]; human, plasma, oral, without boosting, repeat dosing, read-out: t½ (converted)): ~15 h
- accumulation ratio based on AUC [1, 3]: 1.2
- accumulation ratio based on C max [1, 3]: 1.1
- accumulation ratio based on Cτ [1, 3]: 1.4
- time to steady state ([1]; unboosted): 3 days
- dose proportionality of AUC and C max ([1]; unboosted, 20 mg and 50 mg QD for 8 days): slightly less than dose‐proportional
- increase in AUC and C max after a 2.5‐fold dose ([1]; unboosted, 20 mg to 50 mg QD for 8 days): approximately 2 fold
- Geometric least square mean ratio [90% CI], AUC(0‐∞) [2, 4]: 1.61 (1.266, 2.053)
- Geometric least square mean ratio [90% CI], C max [2, 4]: 1.60 (0.995, 2.566)
- change in t½ with RTV [2, 5]: approximately doubled
- increase in 24‐h concentration (C24) with RTV [2, 5]: ~6.4 fold
- increase in AUC(0‐t) with RTV [2, 5]: approximately 10 fold
- increase in C max with RTV [2, 5]: ~3 fold
- bioavailability after meal relative to the fasted state ([2]; SDD PiB formulation, high‐fat (60%) meal, Study HMI116787): approximately 1.6 fold
- Cmax [2, 6]: 1.52 ng/mL
- Tmax [2, 6]: 2.24 h
- concentration at 24 h [2, 6]: 0 ng/mL
- Cmax [2, 7]: 9.1 ng/mL
- AUC [2, 7]: 389 ng·h/mL
- half-life [2, 7]: 33.7 h
- Tmax [2, 7]: 4 h
- concentration at 24 h [2, 7]: 4.64 ng/mL
- Cmax [2, 8]: 3.49 ng/mL
- Tmax [2, 8]: 1.76 h
- concentration at 24 h [2, 8]: 0.63 ng/mL
- Cmax [2, 9]: 8.09 ng/mL
- AUC [2, 9]: 104 ng·h/mL
- half-life [2, 9]: 14.1 h
- Tmax [2, 9]: 1.75 h
- concentration at 24 h [2, 9]: 1.54 ng/mL
- Cmax [2, 10]: 13.1 ng/mL
- AUC [2, 10]: 195 ng·h/mL
- half-life [2, 10]: 17.4 h
- Tmax [2, 10]: 2.02 h
- concentration at 24 h [2, 10]: 3.11 ng/mL
- Cmax [2, 11]: 23.7 ng/mL
- AUC [2, 11]: 385 ng·h/mL
- half-life [2, 11]: 18.8 h
- Tmax [2, 11]: 2.75 h
- concentration at 24 h [2, 11]: 5.93 ng/mL
- CL/F [2, 7]: 25.7 (18.8, 35.1) L/h
- CL/F [2, 9]: 193 (147, 254) L/h
- CL/F [2, 10]: 256 (203, 324) L/h
- CL/F [2, 11]: 260 (202, 335) L/h
- increase in C max by RTV ([2]; single dose after steady‐state predosing with RTV 100 mg QD): 3 fold
